“Also recorded” adds a separate entry of the source. Structures can show the parent of a compound that is named as a salt. Where two headings read alike, the source gives them in different places.
How the values were obtained:
[1] = system: NF-M17; assay: CD titration of NF-M17 peptide/aluminum with silicon compounds (Example 1); assay type: biochemical, human
[2] = target: T1, A-beta1-42 peptide (Homo sapiens, UniProt P05067); assay type: biochemical
[3] = system: A-beta1-42 peptide; assay type: biochemical, human
[4] = system: Caco-2 cells
[5] = system: Caco-2 cells; conditions: for Permeation Coefficient (cm/sec) Mean ± SD, where applicable: human
[6] = system: A-beta antigen; assay: Slot blot of A-beta antigen extracted from Alzheimer's brain tissue sections (Example 8); set-up: species or system human
[7] = in vitro; conditions: human, Caco-2
[8] = target: T1, A-beta1-42 peptide; assay type: biochemical; remark: listed apart in the source
[9] = system: peptide 1 (A-beta1-42 peptide); assay: CD titration of iron-complexed peptide 1 with silanes (Example 9); assay type: biochemical, human

T1 sequence (P05067 672-713): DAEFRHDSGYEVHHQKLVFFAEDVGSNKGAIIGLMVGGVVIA

C[Si](Cl)(Cl)c1ccccc1 [MPDS, methylphenyldichlorosilane]
Restore original spectra? [1]: Yes
equivalents at which the CD spectrum of NF-M17/aluminum was restored to its original shape [1]: around 32 equivalents

[Fe+2] [iron (II)]
effect of the metal on the A-beta1-42 CD spectrum [2]: minor or no effects

CC[Si](Cl)(Cl)CC [DCDES, dichlorodiethylsilane]
Restore original spectra? [1]: Yes
equivalents at which the CD spectrum of NF-M17/aluminum was restored to its original shape [1]: around 32 equivalents
restoration of the original CD spectrum of A-beta1-42 peptide after exposure to aluminum [3]: at least partially restored

C1CC[Si]2(CCCCO2)OC1 [SDSU, 1,7-dioxa-6-sila-spiro[5.5]undecane]
restoration of the original CD spectrum of A-beta1-42 peptide after exposure to aluminum [3]: at least partially restored
transport across Caco-2 cells [4]: significant amount of transport

CC(=O)O[Si](OC(C)=O)(OC(C)=O)OC(C)=O [TAS, tetraacetooxysilane]
restoration of the original CD spectrum of A-beta1-42 peptide after exposure to aluminum [3]: at least partially restored

[Zn] [Zinc]
effect of the metal on the A-beta1-42 CD spectrum [2]: minor or no effects

triethoxysilylbutyronitrile [TESB]
restoration of the original CD spectrum of A-beta1-42 peptide after exposure to aluminum [3]: at least partially restored; also recorded: reverses aluminum-induced denaturation
relative transport across Caco-2 cells (FIG. 29B vs FIG. 29A) [4]: more transport
transport across Caco-2 cells [4]: significant amount of transport
permeation of Caco-2 cells relative to mannitol ([5]; Caco-2): at least four times greater
Permeation Coefficient (cm/sec) Mean ± SD, where applicable ([5]; Caco-2): 3.0 × 10^−5 (n = 2) cm/sec

CCCCCCCC[Si](Cl)(Cl)Cl [OTCS, n-octyltrichlorosilane]
Restore original spectra? [1]: (gelation of OTCS)
restoration of the CD spectrum of NF-M17/aluminum to its original shape [1]: did not restore

triethoxysilylpropionitrile [TESP]
restoration of the original CD spectrum of A-beta1-42 peptide after exposure to aluminum [3]: at least partially restored

dichlorosilacyclobutane [DCSCB]
restoration of the original CD spectrum of A-beta1-42 peptide after exposure to aluminum [3]: at least partially restored
transport across Caco-2 cells [4]: significant amount of transport

CCC(C#N)C[Si](C)(Cl)Cl (centres unmarked) [CBMS, 2-cyanobutylmethyldichlorosilane]
Total Extracted [6]: 5.2 fmol
Papp A→B [7]: 6.5 ×10⁻⁶ cm/s

CC(C#N)C[Si](C)(Cl)Cl (centres unmarked) [CPMS, 2-cyanopropylmethyldichlorosilane]
Total Extracted [6]: 6.0 fmol
extraction of A-beta antigen from Alzheimer's tissue [6]: no detectable antigen
Papp A→B [7]: 6.1 ×10⁻⁶ cm/s

CCCCCC[Si](C)(Cl)Cl [HMDS, hexylmethyldichlorosilane]
Restore original spectra? [1]: Yes
equivalents at which the CD spectrum of NF-M17/aluminum was restored to its original shape [1]: around 32 equivalents
restoration of the original CD spectrum of A-beta1-42 peptide after exposure to aluminum [3]: at least partially restored

NCCC[Si](O)(O)O [APST, 3-aminopropylsilantriol]
Restore original spectra? [1]: Yes
chelation of aluminum compared to sodium orthosilicate [1]: improved chelation
restoration of the CD spectrum of NF-M17/aluminum to its original shape [1]: able to restore

trihydroxysilylmethyl phosphonate [TSMP]
permeation of Caco-2 cells relative to mannitol ([5]; Caco-2): slower permeation than mannitol

[Fe+3] [iron (III)]
effect of the metal on the A-beta1-42 CD spectrum [2]: strong effects

O.O.O.O.O.O.O.O.O.O=[Si]([O-])[O-].[Na+].[Na+] [sodium metasilicate, sodium metasilicate nonahydrate, reference compound]
equivalents at which the CD curve began to return / showed some return to its original shape ([1]; NF-M17 with 8 equivalents of aluminum): about 32 equivalents

CC(C)(C)[Si](C)(C)O [TBDMS, tert-butyldimethylsilanol]
Restore original spectra? [1]: No
restoration of the CD spectrum of NF-M17/aluminum to its original shape [1]: did not restore

C[Si](Cl)(Cl)CCC#N [CEMS, 2-cyanoethylmethyldichlorosilane]
protection of the helical structure of A-beta1-42 against amyloid formation by aluminum (III) [8]: protection of the helical structure
Papp A→B [7]: 4.6 ×10⁻⁶ cm/s

CC(C)[Si](Cl)(Cl)C(C)C [DCDIPS, dichlorodiisopropylsilane]
Restore original spectra? [1]: Yes
equivalents at which the CD spectrum of NF-M17/aluminum was restored to its original shape [1]: around 32 equivalents
restoration of the original CD spectrum of A-beta1-42 peptide after exposure to aluminum [3]: at least partially restored

N#CCCC[Si](Cl)(Cl)Cl [CPTCS, 3-cyanopropyltrichlorosilane]
Restore original spectra? [1]: Yes
equivalents at which the CD spectrum of NF-M17/aluminum was restored to its original shape [1]: around 32 equivalents
reversal of the effect of aluminum on the CD spectrum of A-beta1-42 [3]: Moderate reversal; also recorded: almost full reversal

(dichloro)methylsilylbutyronitrile [DCMSBN]
Restore original spectra? [1]: Yes
equivalents at which the CD spectrum of NF-M17/aluminum was restored to its original shape [1]: around 32 equivalents
restoration of the original CD spectrum of A-beta1-42 peptide after exposure to aluminum [3]: at least partially restored
relative transport across Caco-2 cells (FIG. 29B vs FIG. 29A) [4]: more transport
transport across Caco-2 cells [4]: significant amount of transport

C[Si](O)(O)CCCC#N [3f, (dihydroxy)methyl(3-cyanopropyl)silane]
return of the helical CD spectrum on titration of iron-complexed peptide 1 [9]: dosage effect is evident, but non-linear
titration point showing the greatest degree of recovery [9]: 0.25 eq.

Cl [HCl, hydrochloric acid, reference compound]
extraction of A-beta antigen from Alzheimer's tissue [6]: no detectable antigen
reversing the helix-coil transition by acid [9]: effective for reversing the helix-coil transition

CN(C)[Si](N(C)C)(N(C)C)N(C)C [tetrakis, tetrakis(dimethylamino)silane]
restoration of the original CD spectrum of A-beta1-42 peptide after exposure to aluminum [3]: at least partially restored

[Cu] [copper]
effect of the metal on the A-beta1-42 CD spectrum [2]: strong effects

C[Si](Cl)(Cl)CC[Si](C)(Cl)Cl [compound 1042, 1,2-(methyldichlorosilyl)ethane]
Total Extracted ([6]; Braak V tissue, 1 h at room temperature, corrected for volume dilution): 14.0 fmol
share of total antigen released to the extract ([6]; based on the intensity from urea-solubilized tissues): approximately 12%
crossing of the epithelial barrier in the Caco-2 model ([5]; Caco-2): crossed the epithelial barrier efficiently
permeation of Caco-2 cells relative to mannitol ([5]; Caco-2): at least four times greater
Permeation Coefficient (cm/sec) Mean ± SD, where applicable ([5]; Caco-2, 60 min, 20 mM): 2.5 × 10^−5 (n = 2) cm/sec

Aluminum
effect of the metal on the A-beta1-42 CD spectrum [2]: decreases with higher concentrations; also recorded: strong effects

O[Si](O)(c1ccccc1)c1ccccc1 [DPSD, diphenylsilandiol]
Restore original spectra? ([1]; CD spectrum of NF-M17 with 8 equivalents of aluminum, in TFE): (DMSO interfered with spectra)
restoration of the CD spectrum of NF-M17/aluminum to its original shape ([1]; NF-M17 with 8 equivalents of aluminum, in TFE): did not restore

CC[Si](O)(CC)Cc1ccccc1 [BDS, benzyldiethylsilanol]
Restore original spectra? [1]: No
restoration of the CD spectrum of NF-M17/aluminum to its original shape [1]: did not restore

CC[Si](O)(CC)CC [TES, triethylsilanol]
Restore original spectra? [1]: No
restoration of the CD spectrum of NF-M17/aluminum to its original shape [1]: did not restore
restoration of the original CD spectrum of A-beta1-42 peptide after exposure to aluminum [3]: at least partially restored
